EP1208096B1, “SUBSTITUTED PYRIDAZINES AND FUSED PYRIDAZINES WITH ANGIOGENESIS INHIBITING ACTIVITY” (Bayer Corporation, priority 1999, dated 2001)

How the values were obtained:
[1] = tested on: SK-MEL2 human tumor cells that were transfected with a plasmid containing the murine VEGF gene; test: Matrigel Angiogenesis Model (hemoglobin content of Matrigel plugs); type: in vivo, Mice; details: 30, 100 and 300 mg/kg po sid; 12 days post-implantation; vs. vehicle control animals
Procedure: Preparation of Matrigel Plugs and in vivo Phase: Matrigel® (Collaborative Biomedical Products, Bedford, MA) is a basement membrane extract from a murine tumor composed primarily of laminin, collagen IV and heparan sulfate proteoglycan. It is provided as a sterile liquid at 4° C, but rapidly forms a solid gel at 37° C.
Liquid Matrigel at 4° C was mixed with SK-MEL2 human tumor cells that were transfected with a plasmid containing the murine VEGF gene with a selectable marker. Tumor cells were grown in vitro under selection and cells were mixed with cold liquid Matrigel at a ratio of 2 X 10^6 per 0.5 ml. […]
Optical densities were determined spectrophotometrically at 600 nm in a 96-well plate reader, SpectraMax 250 Microplate Spectrophotometer System (Molecular Devices, Sunnyvale, CA). Background Lysis Buffer readings were subtracted from all wells.
Total sample hemoglobin content was calculated according to the following equation: Total Hemoglobin = (Sample Lysate Volume) x (Hemoglobin Concentration) [formula]
The average Total Hemoglobin of Matrigel samples without cells was subtracted from each Total Hemoglobin Matrigel sample with cells. Percent inhibition was calculated according to the following equation: % Inhibition =((Average Total Hemoglobin Drug-Treated Tumor Lysates) X 100)/((Average Total Hemoglobin Non-Treated Tumor Lysates)) [formula]

[2] = target: T1, NIH3T3 cells expressing the full length KDR receptor (Homo sapiens, UniProt P35968); test: Cell mechanistic assay - Inhibition of 3T3 KDR phosphorylation; type: cell-based; details: VEGF (30 ng / ml) for 10 minutes after 30 minutes with compound; KDR phosphotyrosine ELISA
T1 construct: NIH3T3 cells expressing the full length KDR receptor; expressed in transfected cells; host or cells: NIH3T3 cells (G418 selection)
T1 sequence (P35968 20-1356): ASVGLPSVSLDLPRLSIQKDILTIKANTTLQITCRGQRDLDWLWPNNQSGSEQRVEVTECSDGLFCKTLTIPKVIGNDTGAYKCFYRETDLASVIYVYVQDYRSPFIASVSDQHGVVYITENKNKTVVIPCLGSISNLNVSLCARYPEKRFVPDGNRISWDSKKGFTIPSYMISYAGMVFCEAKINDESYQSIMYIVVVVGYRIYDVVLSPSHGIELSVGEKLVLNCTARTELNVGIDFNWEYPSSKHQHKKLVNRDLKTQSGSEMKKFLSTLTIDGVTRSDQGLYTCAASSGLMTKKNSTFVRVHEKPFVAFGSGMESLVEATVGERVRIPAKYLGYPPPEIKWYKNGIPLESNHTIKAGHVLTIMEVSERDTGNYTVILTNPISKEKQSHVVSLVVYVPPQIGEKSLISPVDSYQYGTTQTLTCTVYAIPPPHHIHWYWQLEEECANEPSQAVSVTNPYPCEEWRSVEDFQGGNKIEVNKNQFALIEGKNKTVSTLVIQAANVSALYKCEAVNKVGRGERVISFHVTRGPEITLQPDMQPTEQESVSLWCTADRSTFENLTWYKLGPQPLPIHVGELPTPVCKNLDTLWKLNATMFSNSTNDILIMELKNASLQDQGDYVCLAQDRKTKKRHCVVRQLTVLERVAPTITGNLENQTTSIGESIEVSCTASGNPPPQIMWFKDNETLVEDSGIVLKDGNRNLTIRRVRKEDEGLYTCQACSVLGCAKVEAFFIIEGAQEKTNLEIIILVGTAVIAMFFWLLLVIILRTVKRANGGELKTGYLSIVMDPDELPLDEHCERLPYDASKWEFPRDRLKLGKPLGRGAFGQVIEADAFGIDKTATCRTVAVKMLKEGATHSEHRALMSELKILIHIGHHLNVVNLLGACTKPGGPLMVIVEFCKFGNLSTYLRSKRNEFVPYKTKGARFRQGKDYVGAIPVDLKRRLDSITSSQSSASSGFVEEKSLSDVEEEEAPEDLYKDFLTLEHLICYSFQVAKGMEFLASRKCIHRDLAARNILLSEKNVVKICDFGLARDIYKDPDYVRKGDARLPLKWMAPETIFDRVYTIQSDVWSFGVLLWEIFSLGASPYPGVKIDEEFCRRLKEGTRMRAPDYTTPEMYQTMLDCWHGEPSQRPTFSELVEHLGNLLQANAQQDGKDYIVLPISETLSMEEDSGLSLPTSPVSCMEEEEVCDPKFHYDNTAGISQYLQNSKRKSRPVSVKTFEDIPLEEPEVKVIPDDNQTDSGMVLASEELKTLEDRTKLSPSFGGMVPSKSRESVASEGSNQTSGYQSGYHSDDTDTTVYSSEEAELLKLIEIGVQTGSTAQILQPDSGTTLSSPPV
Procedure: NIH3T3 cells expressing the full length KDR receptor were grown in DMEM (Life Technologies, Inc., Grand Island, NY) supplemented with 10% newborn calf serum, low glucose, 25 mM /L sodium pyruvate, pyridoxine hydrochloride and 0.2 mg/ ml of G418 (Life Technologies Inc., Grand Island, NY). The cells were maintained in collagen I-coated T75 flasks (Becton Dickinson Labware, Bedford, MA) in a humidified 5% CO2 atmosphere at 37°C.
Fifteen thousand cells were plated into each well of a collagen I-coated 96-well plate in the DMEM growth medium. Six hours later, the cells were washed and the medium was replaced with DMEM without serum. After overnight culture to quiesce the cells, the medium was replaced by Dulbecco's phosphate-buffered saline (Life Technologies Inc., Grand Island, NY) with 0.1% bovine albumin (Sigma Chemical Co., St Louis, MO). After adding various concentrations (0-300 nM) of test compounds to the cells in 1% final concentration of DMSO, the cells were incubated at room temperature for 30 minutes. The cells were then treated with VEGF (30 ng / ml) for 10 minutes at room temperature. Following VEGF stimulation, the buffer was removed and the cells were lysed by addition of 150 µl of extraction buffer (50 mM Tris, pH 7.8, supplemented with 10% glycerol, 50 mM BGP, 2 mM EDTA, 10 mM NaF, 0.5 mM NaVO4, and 0.3% TX-100) at 4°C for 30 minutes.
To assess receptor phosphorylation, 100 microliters of each cell lysate was added to the wells of an ELISA plate precoated with 300 ng of antibody C20 (Santa Cruz Biotechnology, Inc., Santa Cruz , CA). Following a 60-minute incubation, the plate was washed and bound KDR was probed for phosphotyrosine using an anti-phosphotyrosine mAb clone 4G10 (Upstate Biotechnology, Lake Placid, NY). The plate was washed and wells were incubated with anti-mouse IgG/HRP conjugate (Amersham International plc, Buckinghamshire, England) for 60 minutes. Wells were washed and phosphotyrosine was quantitated by addtion of 100 µl per well of 3,3',5,5' tetramethylbenzidine (Kirkegaard and Perry, TMB Microwell 1 Component peroxidase substrate) solution. Color development was arrested by the addition of 100 µl 1% HCl based stop solution (Kirkegaard and Perry, TMB 1 Component Stop Solution).
Optical densities (OD) were determined spectrophotometrically at 450 nm in a 96-well plate reader (SpectraMax 250, Molecular Devices). Background (no VEGF added) OD values were subtracted from all ODs and percent inhibition was calculated according to the equation: % Inhibition =((OD(VEGF control) - OD(with test compound)) X 100)/(OD(VEGF control) - OD(no VEGF added)) [formula]
IC50s were determined with a least squares analysis program using compound concentration versus percent inhibition. Compounds that have IC50 < 20 nM in this assay include those of Examples 2, 6, 7, 11, 15 and 16. Compounds that have IC50 values between 20 nM and 50 nM include those of examples 1, 4, 5, 8, 10, 12, 13 and 14. Those that have measured IC50 values > 50 nM include those of examples 9 and 21.

IC50 [2]: 20 to 50 nM
SMILES: CNC(=O)c1cc(Cc2nnc(Nc3ccc(Cl)cc3)c3ccccc23)ccn1 [Example 1, 4-[4-(4-Chlorophenylamino)phthalazin-1-ylmethyl]pyridin-2-yl carboxylic acid methylamide]
inhibition of total hemoglobin content of the Matrigel samples [1]: > 50%
